Reference: patent publication US20100285087A1, “SINGLE PHENOTHIAZINE ENANTIOMERS AS AGENTS FOR THE PREVENTION OF BONE LOSS” (The University Of Texas, priority 2003, published 2010)
Read-outs that look alike come from different tables or passages of the source.

How the values were obtained:
H1 receptor = target: T1, H1 receptor (Homo sapiens, UniProt P35367); test: Histamine-stimulated IL-6 production in HUVEC cells (RT-PCR); type: cell-based; settings: for Anti-histamine activity (IL-6 production assay), in words: 10^−5 M; for Histamine-stimulated IL-6 production reduced to fraction of that observed with histamine stimulation: ethopropazine concentration 10^−4 M
T1 construct: endogenous in cells; host or cells: HUVEC
T1 sequence (P35367 whole entry): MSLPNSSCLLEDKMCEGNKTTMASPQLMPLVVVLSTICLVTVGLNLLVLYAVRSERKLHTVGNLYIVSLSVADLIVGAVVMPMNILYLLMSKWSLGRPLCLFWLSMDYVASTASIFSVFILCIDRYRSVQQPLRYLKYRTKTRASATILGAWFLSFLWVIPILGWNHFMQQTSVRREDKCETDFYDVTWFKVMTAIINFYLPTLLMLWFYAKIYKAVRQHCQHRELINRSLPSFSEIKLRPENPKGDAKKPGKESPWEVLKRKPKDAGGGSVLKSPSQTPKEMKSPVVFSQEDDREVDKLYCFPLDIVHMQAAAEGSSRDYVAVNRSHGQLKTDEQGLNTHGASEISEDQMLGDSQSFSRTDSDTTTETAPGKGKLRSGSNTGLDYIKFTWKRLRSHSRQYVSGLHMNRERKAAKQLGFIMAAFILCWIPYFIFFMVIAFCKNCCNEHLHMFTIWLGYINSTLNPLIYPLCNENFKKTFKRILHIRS
Protocol: In the present studies, HUVEC cells were plated and grown to confluence in 6-well plates. […] The total RNA was isolated using Tri-reagent and subjected to reverse transcription polymerase chain reaction (RT-PCR™) analysis of IL-6 production using semi-quantitative analysis against HPRT expression (control gene).

[1] = tested on: ovariectomized rats (OVX); settings: OVX + PROM rats, cited from earlier work
[2] = post-menopausal women, 50 mg/day promethazine associated with estrogens; cited from earlier work
osteoclasts [3] = test: CalciFluor assay (OsteoAssay): calcium released by osteoclast-mediated resorptive activity; type: cell-based
Source text: A CalciFluor assay is used to measure the calcium that is released as a result of osteoclast-mediated resorptive activity. The first run of this assay looked at three new inventive compounds as well as establishing the data on the internal controls, (+/−)-promethazine and Alendronate (bis-phosphonate). The preliminary data on standards and inventive analogs is provided in Table 3, some general SAR (structure-activity relationships) trends are apparent.
The assay is optimized and dose-response data is generated on the Alendronate and Promethazine controls.

[4] = Cytotoxicity testing of promethazine enantiomers; type: cell-based
osteoclasts [5] = test: Osteoclast resorption assay on mammoth tusk slices; type: cell-based
Protocol: During this time, osteoclasts mature and degrade bone matrix. At the end of the incubation period, cells are removed, the specimen examined by SEM and the absorption area/slice is quantitated versus control (untreated) slices.

osteoclasts [6] = settings: peak of resorption (4 days), n = 8; cited from earlier work
[7] = first run, preliminary data, read-out: OsteoAssay IC50

In the case of CCN(CC)C(C)CN1c2ccccc2Sc2ccccc21 (racemic) [Ethopropazine racemate, ethopropazine], the “Anti-histamine activity (IL-6 production assay), in words” value (from here on “Anti-histamine activity”) (H1 receptor) is reported as “so effective that resolution of the more active enantiomer could not be determined” and the “Histamine-stimulated IL-6 production reduced to fraction of that observed with histamine stimulation” value (H1 receptor) is reported as “approximately one fifth”.
For CC(CN1c2ccccc2Sc2ccccc21)N(C)C (racemic) [Promethazine racemate, promethazine], the Vertebra mg ([1]; 5th lumbar vertebra) is listed as 253 ± 24 mg, the Vertebra mm ([1]; 5th lumbar vertebra) is listed as 6.3 ± 0.3 mm and the “Cn-BV-TV (femur cancellous bone volume)” value [1] is listed as 12.5 ± 5.6%. For the same compound, the “F-BMC (femur bone mineral content)” value [1] was 336 ± 30 mg, the F-BMC/BW [1] was 1.06 ± 0.06 mg/g and the “F-BMD (femur bone mineral density)” value [1] was 125 ± 14 mg/cm^2. The Femur mg [1] was 716 ± 38 mg, the Femur mm [1] was 34.5 ± 0.7 mm and the “Tb-N (trabecular number)” value [1] was 2.1 ± 0.7 mm^−1. For the same compound, the “Tb-Sp (trabecular separation)” value [1] was 477 ± 215 μm, the “Tb-Th (trabecular thickness)” value [1] was 57.5 ± 7.3 μm and the “V-BMC (5th lumbar vertebral bone mineral content)” value [1] was 100 ± 10 mg. The “V-BMD (5th lumbar vertebral bone mineral density)” value [1] was 108 ± 6 mg/cm^2, the “Z score F-BMC” value [1] was −1.7 ± 0.9 and the “Annual gain in spinal bone mass” value [2] was 3%.
For CC(CN(C)C)CN1c2ccccc2Sc2ccccc21 (racemic) [trimeprazine racemate, trimeprazine], the “Anti-histamine activity” value (H1 receptor) was “so effective that resolution of the more active enantiomer could not be determined”.
In the case of CCN(CC)C(C)CN1c2ccccc2Sc2ccccc21.Cl (single isomer, unassigned) [ethopropazine (+) enantiomer], the “Anti-histamine activity” value (H1 receptor) is reported as “so effective that resolution of the more active enantiomer could not be determined” and the “Histamine-stimulated IL-6 production reduced to fraction of that observed with histamine stimulation” value (H1 receptor) is reported as “approximately two fifths”.
With CCN(CC)C(C)CN1c2ccccc2Sc2ccccc21.Cl (single isomer, unassigned) [ethopropazine (−) enantiomer] the “Effectiveness relative to the (+) enantiomer (IL-6 reduction)” value (H1 receptor; ethopropazine) was “four times”, the “Effectiveness relative to the racemate (IL-6 reduction)” value (H1 receptor; ethopropazine) was “approximately twice” and the “Histamine-stimulated IL-6 production reduced to fraction of that observed with histamine stimulation” value (H1 receptor) was “one tenth”.
For CC(CN(C)C)CN1c2ccccc2Sc2ccccc21 (single isomer, unassigned) [trimeprazine (+) enantiomer], the “Anti-histamine activity” value (H1 receptor) was “so effective that resolution of the more active enantiomer could not be determined”.
With C[C@H](CN1c2ccccc2Sc2ccccc21)N(C)C [(+)-PMZ, (R)-N,N-dimethyl-1-(10H-phenothiazin-10-yl)propan-2-amine] the IC50 (osteoclasts [3]; [7]) was under 1 µM, the “Cytotoxicity compared to the racemic mixture” value [4] was “did not have any significant increase in cytotoxicity” and the “Concentration needed for 90% inhibition of bone resorption compared with the racemate” value (osteoclasts [5]) was “two orders of magnitude lower”. For the same compound, the “Efficacy for osteoclast inhibition compared with the racemate and the (−) enantiomer” value (osteoclasts [5]) was “threefold higher” and the inhibition at 0.1 µM (osteoclasts [5]; Osteoclast, 336 h, 10^−7 M, 14 days, read-out: Inhibition of bone resorption) was 90%.
C[C@H](CN1c2ccccc2Sc2ccc(C(F)(F)F)cc21)N(C)C [(R)-N,N-dimethyl-1-(2-(trifluoromethyl)-10H-phenothiazin-10-yl)propan-2-amine] gave an IC50 (osteoclasts [3]; [7]) of over 10 µM.
C[C@H](CN1c2ccccc2Sc2ccc(Cl)cc21)N(C)C [(R)-l-(2-chloro-10H-phenothiazin-10-yl)-N,N-dimethylpropan-2-amine] showed an IC50 (osteoclasts [3]; [7]) of over 10 µM.
COc1ccc2c(c1)N(C[C@@H](C)N(C)C)c1ccccc1S2 [(R)-l-(2-methoxy-10H-phenothiazin-10-yl)-N,N-dimethylpropan-2-amine] showed an IC50 (osteoclasts [3]; [7]) of under 1 µM.
Compound NCCCC(O)(P(=O)(O)O)P(=O)(O)O [Alendronate, alendronate] has an IC50 (osteoclasts [3]; optimized assay, dose response, FIG. 13, read-out: IC50, calcium release by osteoclast-mediated resorption) of about 10 µM.
For CN/C(=N/CCSCc1nc[nH]c1C)NC#N [Cimetidine, cimetidine], the “Active Osteoclasts (on-bone cells)” value (osteoclasts [6]) is given as 6.2 ± 0.8, the “Inactive Osteoclasts (off-bone cells)” value (osteoclasts [6]) is given as 3.1 ± 0.7 and the “OBIT (OBI, mean interface of the active cells with the bone surface)” value (osteoclasts [6]) is given as 24.7 ± .9. The RS (osteoclasts [6]) was 14.4 ± 2.0 and the “Total Osteoclasts” value (osteoclasts [6]) was 9.4 ± 1.4.
For COc1ccc(CN(CCN(C)C)c2ccccn2)cc1 [Mepyramine, mepyramine], the “Active Osteoclasts (on-bone cells)” value (osteoclasts [6]) is given as 9.6 ± 0.7, the “Inactive Osteoclasts (off-bone cells)” value (osteoclasts [6]) is given as 5.7 ± 0.8 and the “OBIT (OBI, mean interface of the active cells with the bone surface)” value (osteoclasts [6]) is given as 18.4 ± 0.8. The RS (osteoclasts [6]) was 17.6 ± 1.3 and the “Total Osteoclasts” value (osteoclasts [6]) was 15.3 ± 1.5.
In the case of C[C@@H](CN1c2ccccc2Sc2ccccc21)N(C)C [promethazine (−) enantiomer, (S)-N,N-dimethyl-1-(10H-phenothiazin-10-yl)propan-2-amine], the “Cytotoxicity compared to the racemic mixture” value [4] is reported as “the same was also true”.
